Data on two compounds can be found in patent US20140162942A1, “INHIBITION OF CYP3A DRUG METABOLISM” (priority 2010, published 2014).

Data set [1] deals with HCV NS3 serine protease (Hepatitis C virus genotype 1a, UniProt P27958). Conditions: as described in WO2005/015579; cited from earlier work.
Data set [2] has as its system CYP3A4/5. Kind of data set: Clinical study: effect of boceprevir on the pharmacokinetic profile of midazolam in healthy adult subjects. Conditions: for AUC(0-t) / Cmax / Tmax: both, human, in vivo, 4 mg; for Tmax: MDZ Tmax. The procedure: A clinical study was conducted to determine the effects of boceprevir on the pharmacokinetic (PK) profile of midazolam (MDZ) to assess the ability of boceprevir to inhibit CYP3A4/5 in vivo by monitoring its effect on the metabolism of MDZ, a sensitive CYP3A4/5 substrate.
This study was conducted in healthy adult subjects (seven male and five female subjects), at a single center, in conformance with Good Clinical Practices. The study used a fixed-sequence design ([…]). The PK profile of MDZ and its metabolite (1-hydroxy midazolam [1-0H-MDZ)) was determined when MDZ was administered alone and compared with the PK profile after co-administration of boceprevir as well as following a washout period of 7 days after boceprevir administration.
Boceprevir (BOC) 800 mg was administered as 4×200 mg capsules. MDZ 4 mg was administered as a single dose of an oral solution.
Day 1: MDZ 4 mg (oral solution, single dose)
Days 1 to 5: Boceprevir 800 mg (4×200 mg capsules) TID
Day 6: MDZ 4 mg (oral solution, single dose) and boceprevir 800 mg (4×200 mg capsules) TID Days 8 and 13: MDZ 4 mg (oral solution, single dose)
Blood samples for PK analyses were collected: for MDZ and 1-0H-MDZ: Days −1, 6, 8, and 13: predose (Ohr) and at 0.5, 1, 2, 3, 4, 8, 12, and 24 hours postdose for boceprevir: predose (Ohr) on Day 4 and Day 5 and on Day 6: predose (Ohr), and at 0.5, 1, 2, 3, 4, 6, and 8 hr postdose. The 8 hour sample was to be collected prior to the administration of the next dose of Boceprevir.

The structures appear in SMILES notation.

Sequence of HCV NS3 serine protease (P27958 1658-1711): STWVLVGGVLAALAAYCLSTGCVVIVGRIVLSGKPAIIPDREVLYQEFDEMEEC
Sequence of HCV NS3 serine protease (P27958 1027-1657): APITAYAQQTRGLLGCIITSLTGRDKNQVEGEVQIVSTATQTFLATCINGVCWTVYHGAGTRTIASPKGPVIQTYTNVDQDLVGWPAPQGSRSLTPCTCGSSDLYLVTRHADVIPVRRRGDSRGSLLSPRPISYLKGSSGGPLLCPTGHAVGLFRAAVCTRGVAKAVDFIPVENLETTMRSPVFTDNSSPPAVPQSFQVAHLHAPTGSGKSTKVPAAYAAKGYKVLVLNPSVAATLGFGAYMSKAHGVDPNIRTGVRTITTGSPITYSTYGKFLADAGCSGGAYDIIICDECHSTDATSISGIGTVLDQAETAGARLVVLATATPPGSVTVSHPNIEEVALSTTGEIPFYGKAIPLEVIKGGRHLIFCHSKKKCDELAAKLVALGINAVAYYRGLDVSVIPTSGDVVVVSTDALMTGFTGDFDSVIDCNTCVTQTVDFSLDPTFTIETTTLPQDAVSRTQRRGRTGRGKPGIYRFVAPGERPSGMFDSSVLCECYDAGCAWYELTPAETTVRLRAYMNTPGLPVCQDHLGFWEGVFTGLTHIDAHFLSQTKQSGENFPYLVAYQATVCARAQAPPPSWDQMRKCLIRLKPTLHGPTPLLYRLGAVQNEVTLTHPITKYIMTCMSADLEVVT

For the compound `CC(C)(C)NC(=O)N[C@H](C(=O)N1C[C@H]2[C@@H]([C@H]1C(=O)N[C@@H](CC1CCC1)C(=O)C(N)=O)C2(C)C)C(C)(C)C` [Formula 1b, (1R,2S,5S)—N-[(1S)-3-amino-1-(cyclobutylmethyl)-2,3-dioxopropyl]-3-[(2S)-2[[[(1,1-dimethylethyl)amino]carbonyl]amino]-3,3-dimethyl-1-oxobutyl]-6,6-dimethyl-3-azabicyclo[3.1.0]hexane-2-carboxamide], in data set [1], the “in vitro HCV NS3 serine protease inhibitory activity compared with the compound of Formula 1c” value is recorded as “significantly higher”.

As to `Cc1ncc2n1-c1ccc(Cl)cc1C(c1ccccc1F)=NC2` [MDZ, midazolam], the “Plasma concentrations of MDZ, return to baseline after boceprevir” value in data set [2] (48 hours post last administration of boceprevir) is on record as “returned to baseline values by Day 8”. For the same compound, the AUC(0-t) in data set [2] (MDZ AUC (0-24 hr) LS Mean, MDZ Alone (Day 8)) is 56.1 ng·h/mL; in data set [2] (MDZ AUC (0-24 hr) LS Mean, MDZ Alone (Day 13)), 43.8 ng·h/mL; in data set [2] (MDZ AUC (0-24 hr) LS Mean, MDZ Alone (Day-1)) it was 52.9 ng·h/mL; in data set [2] (MDZ AUC(0-24 hr), MDZ Alone (Day 8), after boceprevir), 59.2 ng·h/mL; in data set [2] (MDZ AUC(0-24 hr), MDZ Alone (Day 13), after boceprevir), 45.4 ng·h/mL; in data set [2] (po, MDZ AUC(0-24 hr), MDZ Alone (Day-1), MDZ 4 mg oral, n = 12), 56.4 ng·h/mL. The Cmax amounted to 9.82 ng/mL in data set [2] (MDZ Cmax LS Mean, MDZ Alone (Day 8)); 8.94 ng/mL in data set [2] (MDZ Cmax LS Mean, MDZ Alone (Day 13)); 9.96 ng/mL in data set [2] (MDZ Cmax LS Mean, MDZ Alone (Day-1)); 10.3 ng/mL in data set [2] (MDZ Cmax, MDZ Alone (Day 8), after boceprevir); 9.15 ng/mL in data set [2] (MDZ Cmax, MDZ Alone (Day 13), after boceprevir); 10.3 ng/mL in data set [2] (po, MDZ Cmax, MDZ Alone (Day-1), MDZ 4 mg oral, n = 12). For the same compound, the Tmax amounted to 2 h in data set [2] (MDZ Alone (Day 8), after boceprevir); 1 h in data set [2] (MDZ Alone (Day 13), after boceprevir); 2 h in data set [2] (po, MDZ Alone (Day-1), MDZ 4 mg oral, n = 12).
